The source of these data is patent publication US20250387400A1, “TYK2 INHIBITORS” (BIOGEN MA INC., priority 2022, published 2025).

Format in all cases: biochemical
Experiment [1] addresses T1, catalytic kinase (JH1) domain of human TYK2 (Homo sapiens, UniProt P29597).
T1 construct: recombinantly generated catalytic kinase (also known as JH1) domain of human JAK1, JAK2, JAK3 and TYK2
T1 sequence (P29597 897-1176 limits assumed): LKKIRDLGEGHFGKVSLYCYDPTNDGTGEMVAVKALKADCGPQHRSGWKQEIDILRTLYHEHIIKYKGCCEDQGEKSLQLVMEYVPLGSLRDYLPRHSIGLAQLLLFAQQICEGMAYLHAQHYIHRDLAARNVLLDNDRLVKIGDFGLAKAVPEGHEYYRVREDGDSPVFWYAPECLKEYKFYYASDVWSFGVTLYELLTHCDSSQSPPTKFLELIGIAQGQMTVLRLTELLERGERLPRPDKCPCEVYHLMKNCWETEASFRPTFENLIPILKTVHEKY
Nature of the experiment: ADP-Glo kinase assay, TYK2 kinase domain. Conditions: 2 nM recombinant TYK2 kinase domain, 50 μM JAK3-974 peptide, 10 μM ATP, 100 minutes; read-out: TYK2 biochem IC50 (nM) Mean.

The target in experiment [2] is T2, catalytic kinase (JH1) domain of human JAK1 (Homo sapiens, UniProt P23458).
T2 construct: 4 nM of recombinant JAK1 kinase domain is used to phosphorylate
T2 sequence (P23458 875-1153 limits assumed): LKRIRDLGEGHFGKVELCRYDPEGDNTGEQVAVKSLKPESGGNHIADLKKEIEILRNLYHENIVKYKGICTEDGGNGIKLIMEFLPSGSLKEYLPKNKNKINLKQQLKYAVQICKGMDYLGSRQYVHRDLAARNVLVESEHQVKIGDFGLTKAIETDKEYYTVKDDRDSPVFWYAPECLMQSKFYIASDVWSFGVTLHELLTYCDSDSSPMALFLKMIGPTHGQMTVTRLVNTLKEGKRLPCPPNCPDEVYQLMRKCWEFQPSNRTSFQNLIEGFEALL
In words: ADP-Glo kinase assay, JAK1 kinase domain. The settings on record: 4 nM recombinant JAK1 kinase domain, 50 μM JAK3-342 peptide, 35 μM ATP, 100 minutes; read-out: JAK1 biochem IC50 (nM) Mean. (In general: ADP-Glo first removes unused ATP, then detects ADP through luciferase.)

In experiment [3] the target is T3, catalytic kinase (JH1) domain of human JAK3 (Homo sapiens, UniProt P52333).
T3 construct: Catalytic activities of recombinant JAK2, JAK3 and TYK2 kinase domain
T3 sequence (P52333 822-1111 limits assumed): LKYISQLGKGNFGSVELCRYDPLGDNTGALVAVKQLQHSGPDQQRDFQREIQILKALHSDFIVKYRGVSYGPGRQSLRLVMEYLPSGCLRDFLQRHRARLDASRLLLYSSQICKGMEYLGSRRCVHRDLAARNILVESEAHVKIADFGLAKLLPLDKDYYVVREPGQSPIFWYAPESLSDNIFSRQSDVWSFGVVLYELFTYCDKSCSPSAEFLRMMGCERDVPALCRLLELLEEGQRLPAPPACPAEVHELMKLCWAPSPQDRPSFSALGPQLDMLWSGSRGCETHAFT
In words: ADP-Glo kinase assay, JAK3 kinase domain. The settings on record: 0.3 nM recombinant JAK3 kinase domain, 50 μM JAK3-974 peptide, 4 μM ATP, 100 minutes; read-out: JAK3 biochem IC50 (nM) Mean.

The target of experiment [4] is T4, catalytic kinase (JH1) domain of human JAK2 (Homo sapiens, UniProt O60674).
T4 construct: Catalytic activities of recombinant JAK2, JAK3 and TYK2 kinase domain
T4 sequence (O60674 849-1124 limits assumed): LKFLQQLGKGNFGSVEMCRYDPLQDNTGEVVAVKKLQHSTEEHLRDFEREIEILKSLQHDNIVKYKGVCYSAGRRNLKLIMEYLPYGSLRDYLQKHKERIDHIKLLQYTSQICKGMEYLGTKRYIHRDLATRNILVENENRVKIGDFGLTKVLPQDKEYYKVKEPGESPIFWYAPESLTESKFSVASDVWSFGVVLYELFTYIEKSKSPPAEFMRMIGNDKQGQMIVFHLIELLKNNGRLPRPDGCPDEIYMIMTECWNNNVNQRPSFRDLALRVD
In words: ADP-Glo kinase assay, JAK2 kinase domain. Conditions: 0.2 nM recombinant JAK2 kinase domain, 50 μM JAK3-974 peptide, 15 μM ATP, 100 minutes; read-out: JAK2 biochem IC50 (nM) Mean.

Structures can show the parent of a compound that is named as a salt.

For the compound `Cn1cc(-c2cc3c(N4CC5CCC(C4)N5C4CC(O)C4)ccnn3c2)cn1` (centres unmarked) [Example 25, 3-(3-(6-(1-methyl-1H-pyrazol-4-yl)pyrrolo[1,2-b]pyridazin-4-yl)-3,8-diazabicyclo[3.2.1]octan-8-yl)cyclobutan-1-ol], the IC50 (in general, the concentration at which inhibition is half-maximal) was 435 nM in experiment [1], 6250 nM in experiment [2], above 10000 nM in experiment [3] and 5050 nM in experiment [4].

Regarding `CO[C@H]1C[C@H](N2C3CCC2CN(c2ccnn4cc(-c5cnn(C)c5)cc24)C3)C1` [Example 29, 4-(8-((1r,3R)-3-methoxycyclobutyl)-3,8-diazabicyclo[3.2.1]octan-3-yl)-6-(1-methyl-1H-pyrazol-4-yl)pyrrolo[1,2-b]pyridazine], the IC50 in experiment [1] is 187 nM; in experiment [2] it was 6500 nM; in experiment [3] it was above 10000 nM; in experiment [4] it was 3600 nM.

Consider `Cn1cc(-c2nc3c(N4CC5CCC(C4)N5[C@H]4C[C@](C)(C#N)C4)ccnc3[nH]2)cn1` [Example 1, (1R,3r)-1-methyl-3-(3-(2-(1-methyl-1H-pyrazol-4-yl)-3H-imidazo[4,5-b]pyridin-7-yl)-3,8-diazabicyclo[3.2.1]octan-8-yl)cyclobutane-1-carbonitrile], for which the IC50 in experiment [1] stood at 13.4 nM; in experiment [2], 175 nM; in experiment [3] it was 850 nM; in experiment [4], 102 nM.

For the compound `Cn1cc(-c2nc3c(N4CC5CCC(C4)N5[C@H]4CC[C@H]4O)ccnc3[nH]2)cn1` (racemic) [Example 8, (1RS,2SR)-2-(3-(2-(1-methyl-1H-pyrazol-4-yl)-3H-imidazo[4,5-b]pyridin-7-yl)-3,8-diazabicyclo[3.2.1]octan-8-yl)cyclobutan-1-ol], the IC50 is 830 nM in experiment [1], 7100 nM in experiment [2], above 10000 nM in experiment [3] and 3150 nM in experiment [4].

Consider `Cn1cc(-c2nc3c(N4CC5CCC(C4)N5C4CNC4)ccnc3[nH]2)cn1` [Example 11, 7-(8-(azetidin-3-yl)-3,8-diazabicyclo[3.2.1]octan-3-yl)-2-(1-methyl-1H-pyrazol-4-yl)-3H-imidazo[4,5-b]pyridine hydrochloride], for which the IC50 was 330 nM in experiment [1], 970 nM in experiment [2], above 5000 nM in experiment [3] and 635 nM in experiment [4].

On to `Cn1cc(-c2cc3c(N4CC5CCC(C4)N5C4(CC#N)COC4)ccnn3c2)cn1` [Example 20, 2-(3-(3-(6-(1-methyl-1H-pyrazol-4-yl)pyrrolo[1,2-b]pyridazin-4-yl)-3,8-diazabicyclo[3.2.1]octan-8-yl)oxetan-3-yl)acetonitrile], for which the IC50 in experiment [1] was determined as 40.5 nM; in experiment [2], 520 nM; in experiment [3] it was 1400 nM; in experiment [4], 265 nM.

As to `Cn1cc(-c2nc3c(N4CC5CCC(C4)N5[C@H]4C[C@@H](C#N)C4)ccnc3[nH]2)cn1` [Example 4, (1S,3s)-3-(3-(2-(1-methyl-1H-pyrazol-4-yl)-3H-imidazo[4,5-b]pyridin-7-yl)-3,8-diazabicyclo[3.2.1]octan-8-yl)cyclobutane-1-carbonitrile], the IC50 worked out at 2.47 nM in experiment [1], 18.7 nM in experiment [2], 65.3 nM in experiment [3] and 9.93 nM in experiment [4].

Consider `N#C[C@H]1C[C@@H](N2C3CCC2CN(c2ccnn4cc(-c5cnn(C(F)F)c5)cc24)C3)C1` [Example 60, (1S,3s)-3-(3-(6-(1-(difluoromethyl)-1H-pyrazol-4-yl)pyrrolo[1,2-b]pyridazin-4-yl)-3,8-diazabicyclo[3.2.1]octan-8-yl)cyclobutane-1-carbonitrile], for which the half-inhibitory concentration (IC50) in experiment [1] stood at 2.38 nM; in experiment [2], 25.5 nM; in experiment [3] it was 132 nM; in experiment [4], 17.5 nM.
